Measured values as given in patent US10117878B2, “Ligands for nematode nuclear receptors and uses thereof” (priority 2006, dated 2018).

Columns and labels:
[1] = system: daf-9(dh6) null worms; assay: Rescue of daf-9 null worms by extracts of sterols incubated with DAF-9 or control microsomes; conditions: for effect on daf-9 animals, DAF-9 microsomes (in words) / rescue of the Daf-c phenotypes: extracts from DAF-9 microsomes incubated with 100 μM sterol; for effect on daf-9 phenotypes, control microsomes (in words): extracts from control (hOR only) microsomes incubated with 100 μM sterol; for complete rescue of Daf-c and Mig phenotypes, animals tested: DAF-9 microsome reactions (100 μM sterol) diluted 8-fold
Method: Microsomes containing hOR or hOR and Daf-9 generated from Sf9 cells were thawed on ice and added to a final concentration of 0.5 mg/mL in 0.1M potassium phosphate buffer in the presence of an NADPH regenerating system (50 U/mL DL-isocitrate dehydrogenase, 0.1 M isocitrate and 0.1 M MgCl2). Substrates were added from stock solutions at 10^−2 M to a final concentration of 100 μM (final reaction volume of 0.5 mL). The mixture was preincubated for 3 min at 37° C. and the reaction was initiated by the addition of NADPH (1 mM). After 16 hrs, the reactions were stopped by extraction with 2×2 mL of methyl-tert-butyl-ether and the top layers were combined and dried under nitrogen. In some experiments, 0.5 μg of 1,4-cholestadiene-3-one was added as an internal standard for the extraction.
Individual 3-keto sterols and their respective 3β-hydroxy sterols were incubated with Sf9 cell microsomes co-expressing DAF-9 and the human P450 oxidoreductase (hOR). As a control, microsomes from cells expressing hOR alone were used.

[2] = molecular target: T1, GAL4-DAF-12 (Caenorhabditis elegans, UniProt G5EFF5); assay: Co-transfection assay: GAL4-DAF-12 and GAL4-responsive luciferase reporter in HEK293 cells; assay type: cell-based, C. elegans; conditions: for DAF-9 independent activation of GAL4-DAF-12 (in words): 10 μM sterol, without DAF-9
T1 construct: 184-754aa (DAF-12); expressed in transfected cells; host or cells: HEK293
T1 sequence (G5EFF5 184-753): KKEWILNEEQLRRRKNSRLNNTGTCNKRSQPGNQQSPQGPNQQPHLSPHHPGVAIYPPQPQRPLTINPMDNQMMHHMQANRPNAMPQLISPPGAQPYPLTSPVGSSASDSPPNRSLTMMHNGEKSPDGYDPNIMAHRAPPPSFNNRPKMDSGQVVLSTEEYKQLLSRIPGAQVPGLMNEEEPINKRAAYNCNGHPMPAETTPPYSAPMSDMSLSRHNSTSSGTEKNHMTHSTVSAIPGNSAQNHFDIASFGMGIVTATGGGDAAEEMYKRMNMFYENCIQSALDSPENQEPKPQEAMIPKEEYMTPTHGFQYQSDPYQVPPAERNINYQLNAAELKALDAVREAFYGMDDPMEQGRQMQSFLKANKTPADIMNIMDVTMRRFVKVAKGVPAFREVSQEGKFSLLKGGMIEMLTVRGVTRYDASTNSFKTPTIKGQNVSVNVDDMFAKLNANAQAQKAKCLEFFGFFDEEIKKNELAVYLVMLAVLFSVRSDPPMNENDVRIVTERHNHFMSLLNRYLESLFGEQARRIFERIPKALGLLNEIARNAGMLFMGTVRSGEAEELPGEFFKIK

[3] = system: DAF-12 in the presence of DAF-9; assay: Co-transfection assay: GAL4-DAF-12 reporter in HEK293 cells with co-transfected DAF-9; assay type: cell-based, C. elegans; conditions: 10 μM sterol; fold induction of RLU compared to ethanol control
Method: To screen for sterol-derived ligands of DAF-12 a co-transfection assay in HEK293 cells was performed using a chimeric GAL4-DAF-12 receptor and a GAL4-responsive luciferase reporter. […] Our initial compound screen consisted of bile acids and known vertebrate steroid and endocrine hormones as these compounds are ligands for PXR, VDR and LXR, the closest vertebrate homologs of DAF-12 (Antebi et al., 2000; Mooijaart et al., 2005).

[4] = molecular target: DAF-12 ligand binding domain (Caenorhabditis elegans, UniProt G5EFF5)
DAF-12 ligand binding domain, sequence (G5EFF5 507-753): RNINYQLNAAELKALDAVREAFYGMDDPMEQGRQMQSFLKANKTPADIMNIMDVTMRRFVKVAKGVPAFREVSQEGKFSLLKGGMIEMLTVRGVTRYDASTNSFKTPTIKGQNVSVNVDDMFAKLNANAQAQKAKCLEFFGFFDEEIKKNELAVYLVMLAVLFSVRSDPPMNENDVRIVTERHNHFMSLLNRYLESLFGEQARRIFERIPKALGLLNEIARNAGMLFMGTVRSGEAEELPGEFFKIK

[5] = system: DAF-12 homolog with co-transfected DAF-9; assay: Activation of the Anycolostoma ceylancium DAF-12 homolog with co-transfection of DAF-9; assay type: cell-based
Description: This invention contemplates the development of strategies against nematodes, including but not limited to parasitic nematodes. Many parasitic nematodes contain homologs of the orphan nuclear receptor DAF-12, which, as described above, is a key regulator of reproductive development in C. elegans. See, e.g., Siddiqui et al. (2000). In accordance with the present invention, therefore, ligands that are operative in the DAF-9/DAF-12 pathway in C. elegans will affect the life cycles of parasitic nematodes similarly. The inventors have discovered in Anycolostoma ceylancium, for example, a DAF-12 homolog that is activated by DAF-12 ligands, identified pursuant to this invention.

[6] = molecular target: T2, mouse CYP27A1 (Mus musculus, UniProt Q9DBG1); assay: Co-transfection of HEK293 cells with GAL4-DAF-12, mouse CYP27A1 and bovine adrenodoxin; assay type: cell-based; conditions: sterol 25 μM; bovine adrenodoxin co-transfected
T2 construct: expressed in transfected cells; host or cells: HEK293
T2 sequence (Q9DBG1 33-533): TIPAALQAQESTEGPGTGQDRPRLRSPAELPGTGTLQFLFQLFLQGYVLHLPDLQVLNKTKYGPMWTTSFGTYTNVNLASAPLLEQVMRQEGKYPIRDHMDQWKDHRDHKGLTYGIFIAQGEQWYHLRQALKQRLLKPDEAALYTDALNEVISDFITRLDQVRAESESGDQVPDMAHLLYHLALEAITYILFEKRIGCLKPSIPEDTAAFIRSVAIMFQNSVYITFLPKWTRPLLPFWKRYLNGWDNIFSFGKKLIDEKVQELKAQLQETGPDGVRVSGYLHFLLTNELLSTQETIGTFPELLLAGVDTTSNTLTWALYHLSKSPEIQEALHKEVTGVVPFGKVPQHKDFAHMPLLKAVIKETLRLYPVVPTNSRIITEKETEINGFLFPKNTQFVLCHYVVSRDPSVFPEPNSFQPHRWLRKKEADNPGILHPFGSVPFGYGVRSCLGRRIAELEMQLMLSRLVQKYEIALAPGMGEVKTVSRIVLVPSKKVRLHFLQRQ
Method: (§1) Therefore, the ability of CYP27A1 to metabolize 4-cholesten-3-one into a DAF-12 activator was tested.

[7] = molecular target: T3, human CYP27A1 (Homo sapiens, UniProt Q02318); assay: Co-transfection of HEK293 cells with GAL4-DAF-12, human CYP27A1 and bovine adrenodoxin; assay type: cell-based; conditions: sterol 25 μM; bovine adrenodoxin co-transfected
T3 construct: expressed in transfected cells; host or cells: HEK293
T3 sequence (Q02318 34-531): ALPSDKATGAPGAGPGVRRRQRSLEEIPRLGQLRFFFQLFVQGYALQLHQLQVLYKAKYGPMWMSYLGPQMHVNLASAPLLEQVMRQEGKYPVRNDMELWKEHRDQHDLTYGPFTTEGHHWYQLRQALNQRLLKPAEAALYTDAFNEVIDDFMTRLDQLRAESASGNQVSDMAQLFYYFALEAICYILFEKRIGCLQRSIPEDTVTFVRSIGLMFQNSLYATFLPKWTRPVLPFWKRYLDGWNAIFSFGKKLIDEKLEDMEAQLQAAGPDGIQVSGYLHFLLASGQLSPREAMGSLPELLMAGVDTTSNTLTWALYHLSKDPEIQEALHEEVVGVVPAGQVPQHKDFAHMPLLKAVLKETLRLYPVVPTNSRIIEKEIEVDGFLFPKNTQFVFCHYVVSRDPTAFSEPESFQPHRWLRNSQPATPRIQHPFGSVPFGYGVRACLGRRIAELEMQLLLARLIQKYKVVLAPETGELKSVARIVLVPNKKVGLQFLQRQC
Method: as §1

[8] = system: daf-9(dh6) nulls; assay: Rescue assay with pure steroids, daf-9(dh6) nulls; assay type: in vivo, C. elegans; conditions: for effect of 26-hydroxy-4-cholesten-3-one on daf-9 nulls (in words): concentrations as high as 33 μM
[9] = system: C. elegans; conditions: in vivo; cited from earlier work
[10] = extracts from DAF-9 microsomes incubated with sterol
[11] = control microsome reactions (100 μM sterol) diluted 8-fold

## CC(C)CCC[C@@H](C)[C@H]1CC[C@H]2C3=CC[C@H]4[C@H](C)C(=O)CC[C@]4(C)[C@H]3CC[C@]12C [lophenone]
[1]
  effect on daf-9 animals, DAF-9 microsomes (in words): resulted in rescue of Daf-c, none of these animals were normal
  effect on daf-9 phenotypes, control microsomes (in words): dependent on DAF-9
[1]; [10]
  animals that failed to enter dauer, had molting defects, or were dead: 42%
  animals that were Mig: 58%
[2]
  DAF-9 independent activation of GAL4-DAF-12 (in words): required the presence of DAF-9
[3]
  activation of DAF-12 upon co-transfection with DAF-9: 103 fold

## CC(C)CCC[C@@H](C)[C@H]1CC[C@H]2C3=CC[C@H]4CC(=O)CC[C@]4(C)[C@H]3CC[C@]12C [lathosterone]
[1]
  effect on daf-9 animals, DAF-9 microsomes (in words): indistinguishable from wild-type adults
  rescue of the Daf-c phenotypes: 100%
  effect on daf-9 phenotypes, control microsomes (in words): did not rescue any daf-9 phenotypes
[4]; 1:5000 dilution of DAF-9 microsomes incubated with 100 μM sterol
  ligand binding activity of DAF-9 microsomes incubated with sterol: strong ligand binding activity
[5]
  activation of the DAF-12 homolog with co-transfection of DAF-9: causes activation of this DAF-12 homolog
[6]
  activation of GAL4-DAF-12 with co-transfected mouse CYP27A1: had no effect
[2]
  DAF-9 independent activation of GAL4-DAF-12 (in words): required the presence of DAF-9
[3]
  activation of DAF-12 upon co-transfection with DAF-9: 433 fold
[7]
  activation of GAL4-DAF-12 with co-transfected human CYP27A1: had no effect

## C[C@H](CO)CCC[C@@H](C)[C@H]1CC[C@H]2[C@@H]3CCC4=CC(=O)CC[C@]4(C)[C@H]3CC[C@]12C [(25S),26-hydroxy-4-cholesten-3-one]
[1]
  complete rescue of Daf-c and Mig phenotypes, animals tested: 100%
[1]; [11]
  daf-9 rescue by extracts from control microsome incubations (in words): only an incomplete rescue
  molt defects: 10%
  sterile Mig adults: 75%
[4]; 1 μM sterol
  binding (in words): no significant binding
[2]
  EC50: 1000 nM
  DAF-9 independent activation of GAL4-DAF-12 (in words): strongly active
[8]
  effect of 26-hydroxy-4-cholesten-3-one on daf-9 nulls (in words): still exhibit Mig and/or molting defects, and sterility
[8]; n>60
  worms that bypass dauer: 93%

## CC(C)CCC[C@@H](C)[C@H]1CC[C@H]2C3=CC[C@H]4C[C@@H](O)CC[C@]4(C)[C@H]3CC[C@]12C [lathosterol]
[1]
  effect on daf-9 animals, DAF-9 microsomes (in words): exhibited the Mig phenotype and were sterile
  rescue of the Daf-c phenotypes: 83%
  effect on daf-9 phenotypes, control microsomes (in words): no effect
[9]
  effect on the nematode life cycle as the sole dietary sterol: supported full reproductive growth

## CC(C)CCC[C@@H](C)[C@H]1CC[C@H]2[C@@H]3CCC4=CC(=O)CC[C@]4(C)[C@H]3CC[C@]12C [4-cholesten-3-one]
[1]
  effect on daf-9 animals, DAF-9 microsomes (in words): indistinguishable from wild-type adults
  rescue of the Daf-c phenotypes: 100%
  effect on daf-9 phenotypes, control microsomes (in words): did not rescue any daf-9 phenotypes
[4]; 1 μM sterol
  binding (in words): no significant binding
[6]
  activation of GAL4-DAF-12 with co-transfected mouse CYP27A1: potent activation
[2]
  DAF-9 independent activation of GAL4-DAF-12 (in words): required the presence of DAF-9
[3]
  activation of DAF-12 upon co-transfection with DAF-9: 109 fold
[7]
  activation of GAL4-DAF-12 with co-transfected human CYP27A1: potent activation

## CC(C)CCC[C@@H](C)[C@H]1CC[C@H]2C3=CC[C@H]4[C@H](C)[C@@H](O)CC[C@]4(C)[C@H]3CC[C@]12C [lophenol]
[1]
  effect on daf-9 animals, DAF-9 microsomes (in words): had no effect
  effect on daf-9 phenotypes, control microsomes (in words): had no effect
[9]
  effect on the nematode life cycle as the sole dietary sterol: constitutively entered dauer diapause

## C[C@@H](CO)CCC[C@@H](C)[C@H]1CC[C@H]2[C@@H]3CCC4=CC(=O)CC[C@]4(C)[C@H]3CC[C@]12C [(25R),26-hydroxy-4-cholesten-3-one]
[1]
  complete rescue of Daf-c and Mig phenotypes, animals tested: 100%
[1]; [11]
  daf-9 rescue by extracts from control microsome incubations (in words): had no biological effect
[4]; 1 μM sterol
  increase in binding units compared to vehicle control: 2 fold
[2]
  EC50: 2000 nM
  DAF-9 independent activation of GAL4-DAF-12 (in words): strongly active
[8]
  effect of 26-hydroxy-4-cholesten-3-one on daf-9 nulls (in words): had no effect
